This is an account of results in patent US6251932A, “Immunophilin ligands” (ASTA Medica AG, priority 1998, dated 2001).

Read-outs that look alike come from different tables or passages of the source.

Experiment [1] has as its system IL-2 proliferation. The settings on record: published, cited from earlier work.
For experiment [2], the system named is IL-2 proliferation. Briefly: Inhibition of IL-2 proliferation (published indoline-2-carboxamide). The format is cell-based. The settings on record: 10 μmol; new measurements. From the text: A further compound having immunosuppressant properties was discovered during the screening of substance mixtures (G. Quinkert, H. Bang and D. Reichert, Helv. Chim. Acta 1996, 79, 1260).

Take indoline-2-carboxamide: the results for the “inhibition of IL-2 proliferation” value in experiment [1] (1 μmol) and in experiment [1] (10 μmol) were 12% and 77%, respectively. For the same substance, the “IL-2-dependent inhibition of proliferation” value in experiment [2] worked out at 29%.
